Data from publication PMC11061149, “Protein mimetic 2D FAST rescues alpha synuclein aggregation mediated early and post disease Parkinson’s phenotypes” (Nature Communications, 2024).
Several values for one entry are separate records, joined by “and”; a condition that tells them apart may be missing. Identical values can stand only once.

Test system: HEK cells stably expressing αS-A53T-YFP
Assay: HEK cells treated with 5th cycle PMCA samples (ProteoStat, confocal)
Assay type: cell-based, human
Protocol: To further validate that NS132 generates fiber incompetent structures from the fibers-catalyzed aggregation, we utilized HEK cells that stably express αS-A53T-YFP[24],[51]–[54]. The solutions of αS aggregation in the absence and presence of NS132 from the 5th cycle of PMCA (2 μM in monomeric αS, ±NS132) were introduced to the HEK cells in the presence of Lipofectamine 3000 for 24 h. In contrast to the control (no fibers) (Fig. 3i, control), we observed a significant number of inclusions of αS-A53T-YFP protein in the presence of αS fibers (Fig. 3i, αS, white arrows). […] In contrast, in the presence of the PMCA assay sample from the 5th cycle ( + NS132), there was a significant reduction in the number of αS-A53T-YFP inclusions (Fig. 3i, +NS132). The ProteoStat intensity of inclusions in HEK cells treated with the PMCA sample from cycle five was ~2–3 fold higher than the control condition (no fibers) (Fig. 3j, black). […]
This assay was performed based on a previous protocol with slight modifications. […] The resulting cell pellets were then homogenized, transferred into an autoclaved 1.7 mL microcentrifuge tube, and counted to normalize the data. […] The cell solution was homogenized and equally aliquoted into the desired number of wells in a Costar 96-well flat black plate and fluorescence was measured (λex = 550 nm, λem = 600 nm) on an Infinite M200 Pro Plate Reader. […]

SMILES: Cc1ccc(NC(=O)c2ccc(NC(=O)c3ccc([N+](=O)[O-])c(NCCc4c[nH]c5ccccc45)n3)c(NCC3CCCCC3)n2)c(OCC(=O)O)n1 [NS132]
- ProteoStat dye intensity (raw), individual experiments (HEK cells + fifth cycle PMCA sample (2 μM αS in monomer) with NS132): 1001 and 1176 and 997 and 1009 and 1031 and 978 and 1091 and 1123 and 1010 and 1092 and 1179
- ProteoStat intensity of inclusions, in words (PMCA sample from cycle five in the presence of NS132): significantly lower
